Results published in patent US20240174618A1, “SUBSTITUTED (2-HETEROARYLOXYPHENYL)SULFONATES, SALTS THEREOF AND THEIR USE AS HERBICIDAL AGENTS” (Bayer Aktiengesellschaft, priority 2021, published 2024).

Key:
Assay type in all cases: in vivo
[1] = tested on: Amaranthus retroflexus (AMARE); test: B. Herbicidal post-emergence efficacy, AMARE
Summary of the method: (§1)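 Post-emergence greenhouse test: one-leaf-stage plants, compound (WP/EC, +0.5% additive, 600 L/ha water, ≤1280 g/ha) applied to green parts; % efficacy scored visually vs untreated after ~3 wk; 100% = plants died.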

Veronica persica (VERPE) [2] = test: B. Herbicidal post-emergence efficacy, VERPE
Summary of the method: as §1

Veronica persica (VERPE) [3] = test: A. Herbicidal pre-emergence efficacy, VERPE
Summary of the method: (§2)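 Applied before emergence onto covering soil at rates of 1280 g/ha or less, using 600 L/ha spray water with 0.5% additive. Scoring: visual % efficacy after ~3 weeks, greenhouse.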

[4] = tested on: Echinochloa crus-galli (ECHCG); test: B. Herbicidal post-emergence efficacy, ECHCG; conditions: 1280 g/ha, rated visually after about 3 weeks
Summary of the method: as §1

Setaria viridis (SETVI) [5] = test: A. Herbicidal pre-emergence efficacy, SETVI
Summary of the method: as §2

Kochia scoparia (KCHSC) [6] = test: A. Herbicidal pre-emergence efficacy, KCHSC; conditions: pre-emergence
Summary of the method: as §2

[7] = tested on: Abutilon theophrasti (ABUTH); test: B. Herbicidal post-emergence efficacy, ABUTH; conditions: rated visually after about 3 weeks
Summary of the method: as §1

Stellaria media (STEME) [8] = test: A. Herbicidal pre-emergence efficacy, STEME
Summary of the method: as §2

Kochia scoparia (KCHSC) [9] = test: B. Herbicidal post-emergence efficacy, KCHSC; conditions: for Post-emergence efficacy against KCHSC in %: rated visually after about 3 weeks; for Post-emergence efficacy against KCHSC: 1280 g/ha
Summary of the method: as §1

[10] = tested on: Digitaria sanguinalis (DIGSA); test: B. Herbicidal post-emergence efficacy, DIGSA; conditions: rated visually after about 3 weeks
Description: (§3) Seeds of mono- and dicotyledonous weed plants were placed in plastic pots in sandy loam soil (doubly sown with in each case one species of mono- or dicotyledonous weed plants per pot), covered with soil and cultivated in a greenhouse under controlled growth conditions. 2 to 3 weeks after sowing, the test plants were treated at the one-leaf stage. The compounds of the invention, formulated in the form of wettable powders (WP) or as emulsion concentrates (EC), were applied onto the green parts of the plants as aqueous suspension or emulsion with addition of 0.5% additive at a water application rate of 600 liters per hectare (converted). After the test plants had been kept in the greenhouse under optimum growth conditions for about 3 weeks, the activity of the preparations was rated visually in comparison to untreated controls.
(§4) For example, • 100% efficacy=plants have died, • 0% efficacy=like untreated control plants
(§5) Tables B1a to B12c below show the effects of selected inventive compounds of the general formula (I) according to table 1 on various harmful plants at an application rate corresponding to 1280 g/ha or less, which were obtained by the experimental procedure mentioned above.

[11] = tested on: Digitaria sanguinalis (DIGSA); test: A. Herbicidal pre-emergence efficacy, DIGSA; conditions: scored visually after about 3 weeks vs untreated controls
Summary of the method: as §2

[12] = tested on: Amaranthus retroflexus (AMARE); test: A. Herbicidal pre-emergence efficacy, AMARE
Summary of the method: as §2

Stellaria media (STEME) [13] = test: B. Herbicidal post-emergence efficacy, STEME
Summary of the method: as §1

[14] = tested on: Echinochloa crus-galli (ECHCG); test: A. Herbicidal pre-emergence efficacy, ECHCG; conditions: 1280 g/ha; scored visually after about 3 weeks vs untreated controls
Summary of the method: as §2

Poa annua (POAAN) [15] = test: A. Herbicidal pre-emergence efficacy, POAAN
Summary of the method: as §2

Poa annua (POAAN) [16] = test: B. Herbicidal post-emergence efficacy, POAAN
Summary of the method: as §1

[17] = tested on: Abutilon theophrasti (ABUTH); test: A. Herbicidal pre-emergence efficacy, ABUTH; conditions: 1280 g/ha; scored visually after about 3 weeks vs untreated controls
Summary of the method: as §2

Setaria viridis (SETVI) [18] = test: B. Herbicidal post-emergence efficacy, SETVI; conditions: 1280 g/ha
Description: as §3, §4, §5

SMILES | Post-emergence efficacy against AMARE ([1]; 320 g/ha) | Post-emergence efficacy against AMARE ([1]; 1280 g/ha) | Post-emergence efficacy against VERPE (Veronica persica (VERPE) [2]; 320 g/ha) | Post-emergence efficacy against VERPE (Veronica persica (VERPE) [2]; 1280 g/ha) | Pre-emergence efficacy against VERPE in % (Veronica persica (VERPE) [3]; 1280 g/ha) | Post-emergence efficacy against ECHCG in % [4] | Pre-emergence efficacy against SETVI (Setaria viridis (SETVI) [5]; dosage 320 g/ha) | Pre-emergence efficacy against SETVI (Setaria viridis (SETVI) [5]; dosage 1280 g/ha) | Pre-emergence efficacy against KCHSC (Kochia scoparia (KCHSC) [6]; dosage 1280 g/ha) | Post-emergence efficacy against ABUTH in % ([7]; 1280 g/ha) | Pre-emergence efficacy against STEME (Stellaria media (STEME) [8]; dosage 1280 g/ha) | Post-emergence efficacy against KCHSC in % (Kochia scoparia (KCHSC) [9]; 320 g/ha) | Post-emergence efficacy against KCHSC (Kochia scoparia (KCHSC) [9]) | Post-emergence efficacy against DIGSA in % ([10]; 1280 g/ha) | Pre-emergence efficacy against DIGSA ([11]; 1280 g/ha) | Pre-emergence efficacy against AMARE in % ([12]; 320 g/ha) | Pre-emergence efficacy against AMARE in % ([12]; 1280 g/ha) | Post-emergence efficacy against STEME (Stellaria media (STEME) [13]; 1280 g/ha) | Pre-emergence efficacy against ECHCG [14] | Pre-emergence efficacy against POAAN (Poa annua (POAAN) [15]; dosage 1280 g/ha) | also measured
O=S(=O)(CCCC(F)(F)F)Oc1ccccc1Oc1ccc(Cl)cn1 [Example I-26] | 90% | 90% | 90% | 90% | 100% | 90% | 90% | 100% | 90% | 90% | 90% | 90% | 90% | 90% | 100% | 90% | 100% | 90% | 90% | 100% | Pre-emergence efficacy against POAAN (Poa annua (POAAN) [15]; dosage 320 g/ha): 90%
O=S(=O)(CC1CC(F)(F)C1)Oc1c(Br)cccc1Oc1ncc(Cl)cn1 [Example I-75] | 100% | 100% | 100% | 100% | 100% | 90% | 90% | 100% | 100% | 100% | 100% | 100% | 100% | 90% | 100% | 90% | 100% | 100% | 100% | 100% | Post-emergence efficacy against AMARE ([1]; 80 g/ha): 100%; Post-emergence efficacy against VERPE (Veronica persica (VERPE) [2]; 80 g/ha): 100%; Post-emergence efficacy against POAAN (Poa annua (POAAN) [16]; 320 g/ha): 90%; Post-emergence efficacy against POAAN (Poa annua (POAAN) [16]; 1280 g/ha): 90%; Pre-emergence efficacy against VERPE in % (Veronica persica (VERPE) [3]; 320 g/ha): 90%; Pre-emergence efficacy against ABUTH [17]: 100%; Pre-emergence efficacy against KCHSC (Kochia scoparia (KCHSC) [6]; dosage 320 g/ha): 90%; Post-emergence efficacy against ABUTH in % ([7]; 80 g/ha): 90%; Post-emergence efficacy against ABUTH in % ([7]; 320 g/ha): 90%; Pre-emergence efficacy against STEME (Stellaria media (STEME) [8]; dosage 320 g/ha): 100%; Post-emergence efficacy against KCHSC in % (Kochia scoparia (KCHSC) [9]; 80 g/ha): 90%; Pre-emergence efficacy against DIGSA ([11]; 320 g/ha): 90%; Pre-emergence efficacy against AMARE in % ([12]; 80 g/ha): 90%; Post-emergence efficacy against STEME (Stellaria media (STEME) [13]; 320 g/ha): 100%; Pre-emergence efficacy against POAAN (Poa annua (POAAN) [15]; dosage 320 g/ha): 100%
N#Cc1cccc(Oc2ncc(Cl)cn2)c1OS(=O)(=O)CC1CC(F)(F)C1 [Example I-79] | 100% | 100% | 100% | 100% | 100% | 100% | 90% | 100% | 100% | 100% | 100% | 100% | 100% | 100% | 100% | 100% | 100% | 100% | 90% | 90% | Post-emergence efficacy against AMARE ([1]; 80 g/ha): 90%; Post-emergence efficacy against VERPE (Veronica persica (VERPE) [2]; 80 g/ha): 100%; Pre-emergence efficacy against VERPE in % (Veronica persica (VERPE) [3]; 320 g/ha): 100%; Pre-emergence efficacy against ABUTH [17]: 90%; Pre-emergence efficacy against KCHSC (Kochia scoparia (KCHSC) [6]; dosage 320 g/ha): 90%; Post-emergence efficacy against ABUTH in % ([7]; 320 g/ha): 90%; Pre-emergence efficacy against STEME (Stellaria media (STEME) [8]; dosage 320 g/ha): 90%; Post-emergence efficacy against KCHSC in % (Kochia scoparia (KCHSC) [9]; 80 g/ha): 90%; Post-emergence efficacy against DIGSA in % ([10]; 320 g/ha): 90%; Pre-emergence efficacy against DIGSA ([11]; 320 g/ha): 100%; Pre-emergence efficacy against AMARE in % ([12]; 80 g/ha): 90%; Post-emergence efficacy against STEME (Stellaria media (STEME) [13]; 80 g/ha): 90%; Post-emergence efficacy against STEME (Stellaria media (STEME) [13]; 320 g/ha): 100%; Post-emergence efficacy against SETVI (Setaria viridis (SETVI) [18]): 90%
N#Cc1cccc(Oc2ncc(Cl)cn2)c1OS(=O)(=O)CCCCl [Example I-80] | 100% | 100% | 90% | 100% | 100% | 100% | 90% | 100% | 100% | 100% | 100% | 90% | 90% | 90% | 100% | 90% | 100% | 100% | 90% | 90% | Post-emergence efficacy against AMARE ([1]; 80 g/ha): 100%; Post-emergence efficacy against VERPE (Veronica persica (VERPE) [2]; 80 g/ha): 90%; Post-emergence efficacy against POAAN (Poa annua (POAAN) [16]; 1280 g/ha): 90%; Pre-emergence efficacy against VERPE in % (Veronica persica (VERPE) [3]; 320 g/ha): 90%; Pre-emergence efficacy against ABUTH [17]: 90%; Pre-emergence efficacy against KCHSC (Kochia scoparia (KCHSC) [6]; dosage 320 g/ha): 90%; Post-emergence efficacy against ABUTH in % ([7]; 80 g/ha): 90%; Post-emergence efficacy against ABUTH in % ([7]; 320 g/ha): 90%; Pre-emergence efficacy against STEME (Stellaria media (STEME) [8]; dosage 320 g/ha): 100%; Pre-emergence efficacy against DIGSA ([11]; 320 g/ha): 90%; Pre-emergence efficacy against AMARE in % ([12]; 80 g/ha): 90%; Post-emergence efficacy against STEME (Stellaria media (STEME) [13]; 80 g/ha): 90%; Post-emergence efficacy against STEME (Stellaria media (STEME) [13]; 320 g/ha): 100%; Post-emergence efficacy against SETVI (Setaria viridis (SETVI) [18]): 90%; Pre-emergence efficacy against POAAN (Poa annua (POAAN) [15]; dosage 320 g/ha): 90%
